Test results: PubChem BioAssay (NCI)
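A five-concentration, 48-hour dose response in 96-well plates underlies each endpoint, interpolated linearly between surrounding concentrations. TGI marks complete inhibition of growth.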

How the values were obtained:
Assay in all cases: NCI tumour cell line growth inhibition, 48 h
DLD-1 colon = test system: DLD-1 colon
DMS 273 small cell lung = test system: DMS 273 small cell lung
HOP-18 NSCLC = test system: HOP-18 NSCLC
K-562 leukemia = test system: K-562 leukemia
KM20L2 colon = test system: KM20L2 colon
M19-MEL melanoma = test system: M19-MEL melanoma
NCI/ADR-RES ovarian = test system: NCI/ADR-RES ovarian
OVCAR-8 ovarian = test system: OVCAR-8 ovarian
P388 leukemia = test system: P388 leukemia
P388/ADR leukemia = test system: P388/ADR leukemia
SN12K1 renal = test system: SN12K1 renal
SNB-19 CNS = test system: SNB-19 CNS
SNB-78 CNS = test system: SNB-78 CNS
XF 498 CNS = test system: XF 498 CNS
DMS 114 small cell lung = test system: DMS 114 small cell lung
LXFL 529 NSCLC = test system: LXFL 529 NSCLC

O=C1N[C@@H]2C(=C[C@H](O)[C@@H](O)[C@H]2O)c2cc3c(c(O)c21)OCO3
TGI (DLD-1 colon): 0.0751 µM
TGI (DMS 273 small cell lung): 0.145 µM
TGI (HOP-18 NSCLC): 0.281 µM
TGI (K-562 leukemia): 0.0955 µM
TGI (KM20L2 colon): 0.315 µM
TGI (M19-MEL melanoma): 0.0771 µM
TGI (NCI/ADR-RES ovarian): 0.0972 µM
TGI (OVCAR-8 ovarian): 0.0613 µM
TGI (P388 leukemia): 0.969 µM
TGI (P388/ADR leukemia): 0.45 µM
TGI (SN12K1 renal): 0.1 µM
TGI (SNB-19 CNS): 0.0665 µM
TGI (SNB-78 CNS): 0.399 µM
TGI (XF 498 CNS): 0.0541 µM

COc1cccc(C(=O)C#Cc2cnc(OC)nc2OC)c1
TGI (K-562 leukemia): > 100 µM
TGI (NCI/ADR-RES ovarian): 4.83 µM
TGI (OVCAR-8 ovarian): 3.88 µM
TGI (SNB-19 CNS): 34.8 µM

COc1ccc(C2=NOC(N)(c3ccc(OC)cc3)C2)cc1 (stereo unspecified)
TGI (K-562 leukemia): > 100 µM
TGI (NCI/ADR-RES ovarian): > 100 µM
TGI (OVCAR-8 ovarian): > 100 µM
TGI (SNB-19 CNS): > 100 µM

COc1cc(Nc2nc3cc(C(F)(F)F)ccc3n3cccc23)cc(OC)c1OC
TGI (K-562 leukemia): > 100 µM
TGI (NCI/ADR-RES ovarian): > 100 µM
TGI (OVCAR-8 ovarian): > 100 µM
TGI (SNB-19 CNS): > 100 µM

N#Cc1nc(C#N)n(S(=O)(=O)c2ccccc2)c1NS(=O)(=O)c1ccccc1
TGI (K-562 leukemia): > 100 µM
TGI (NCI/ADR-RES ovarian): > 100 µM
TGI (OVCAR-8 ovarian): > 100 µM
TGI (SNB-19 CNS): > 100 µM

CCOC(=O)C1CCCCN1C(=O)Cc1c[nH]c2ccccc12 (stereo unspecified)
TGI (K-562 leukemia): > 100 µM
TGI (NCI/ADR-RES ovarian): > 100 µM
TGI (OVCAR-8 ovarian): > 100 µM
TGI (SNB-19 CNS): > 100 µM

Cc1cc2c(cc1C)[n+](=O)c(C(=O)c1ccccc1)c(C(F)(F)F)n2[O-]
TGI (K-562 leukemia): 9.14 µM
TGI (NCI/ADR-RES ovarian): > 26.2 µM
TGI (OVCAR-8 ovarian): > 26.8 µM
TGI (SNB-19 CNS): 15.5 µM

O=c1[nH]nc(-c2ccccc2)n1O
TGI (K-562 leukemia): > 100 µM
TGI (NCI/ADR-RES ovarian): > 100 µM
TGI (OVCAR-8 ovarian): > 100 µM
TGI (SNB-19 CNS): > 100 µM

COc1ccc(CNc2cc(=O)n(C)c(=O)[nH]2)cc1
TGI (K-562 leukemia): > 100 µM
TGI (NCI/ADR-RES ovarian): > 100 µM
TGI (OVCAR-8 ovarian): > 100 µM
TGI (SNB-19 CNS): > 100 µM

Nc1ccc(Nc2cc(=O)[nH]c(=O)[nH]2)cc1Cl
TGI (K-562 leukemia): > 100 µM
TGI (NCI/ADR-RES ovarian): > 100 µM
TGI (OVCAR-8 ovarian): > 100 µM
TGI (SNB-19 CNS): > 100 µM

CN1CCN(P2(=S)Oc3ccc4ccccc4c3-c3c(ccc4ccccc34)O2)CC1
TGI (DLD-1 colon): > 100 µM
TGI (DMS 114 small cell lung): > 100 µM
TGI (DMS 273 small cell lung): 73 µM
TGI (HOP-18 NSCLC): > 100 µM
TGI (K-562 leukemia): > 76.9 µM
TGI (KM20L2 colon): > 61.7 µM
TGI (M19-MEL melanoma): > 100 µM
TGI (NCI/ADR-RES ovarian): > 71 µM
TGI (OVCAR-8 ovarian): > 100 µM
TGI (P388 leukemia): > 68 µM
TGI (P388/ADR leukemia): > 95.5 µM
TGI (SN12K1 renal): 56.9 µM
TGI (SNB-19 CNS): > 100 µM
TGI (SNB-78 CNS): > 100 µM
TGI (XF 498 CNS): 67.3 µM

CC1(C)CC(=O)c2c(nc3c4c([nH]c(-c5ccc(Br)cc5)c24)CC(C)(C)C3)C1
TGI (K-562 leukemia): > 100 µM
TGI (NCI/ADR-RES ovarian): > 100 µM
TGI (OVCAR-8 ovarian): > 100 µM
TGI (SNB-19 CNS): > 100 µM

CN(CCCNC(=O)c1cc(-c2ccccc2)nc2ccccc12)CCCNC(=O)c1cc(-c2ccccc2)nc2ccccc12
TGI (K-562 leukemia): 4.69 µM
TGI (NCI/ADR-RES ovarian): 11.1 µM
TGI (OVCAR-8 ovarian): 5.65 µM
TGI (SNB-19 CNS): 16.7 µM

COC(=O)C(=O)Cc1nc2ccccc2o1
TGI (DLD-1 colon): > 100 µM
TGI (DMS 114 small cell lung): > 100 µM
TGI (K-562 leukemia): > 100 µM
TGI (LXFL 529 NSCLC): > 100 µM
TGI (M19-MEL melanoma): > 100 µM
TGI (SNB-19 CNS): > 100 µM
TGI (SNB-78 CNS): > 100 µM
TGI (XF 498 CNS): > 100 µM

O=NN(CCF)C(=O)NC1CCSCC1
TGI (DLD-1 colon): > 100 µM
TGI (DMS 114 small cell lung): > 100 µM
TGI (DMS 273 small cell lung): > 100 µM
TGI (HOP-18 NSCLC): > 100 µM
TGI (K-562 leukemia): > 31.6 µM
TGI (KM20L2 colon): > 100 µM
TGI (M19-MEL melanoma): > 100 µM
TGI (NCI/ADR-RES ovarian): > 100 µM
TGI (OVCAR-8 ovarian): > 100 µM
TGI (P388 leukemia): > 100 µM
TGI (P388/ADR leukemia): > 100 µM
TGI (SN12K1 renal): > 100 µM
TGI (SNB-19 CNS): > 100 µM
TGI (SNB-78 CNS): > 100 µM

O=C(c1ccco1)N(C(=O)N1CCN(c2ccccc2)CC1)S(=O)(=O)c1ccccc1
TGI (K-562 leukemia): > 100 µM
TGI (NCI/ADR-RES ovarian): 55.1 µM
TGI (OVCAR-8 ovarian): > 100 µM
TGI (SNB-19 CNS): 85.2 µM

CCN(CCN(CC)C(=O)Nc1ccccc1)C(=O)Nc1ccccc1
TGI (K-562 leukemia): > 100 µM
TGI (NCI/ADR-RES ovarian): > 100 µM
TGI (OVCAR-8 ovarian): > 100 µM
TGI (SNB-19 CNS): > 100 µM

CC[C@@]1(O)C(=O)OCc2c1cc1n(c2=O)Cc2c-1nc1ccccc1c2/C=N\NC(=O)C(N)CCSC (stereo partly specified)
TGI (K-562 leukemia): > 100 µM
TGI (NCI/ADR-RES ovarian): 23.9 µM
TGI (OVCAR-8 ovarian): 4.36 µM
TGI (SNB-19 CNS): 0.722 µM

CC1CC(C#N)=C2NCCN2C1=O (stereo unspecified)
TGI (K-562 leukemia): > 100 µM
TGI (NCI/ADR-RES ovarian): > 100 µM
TGI (OVCAR-8 ovarian): > 100 µM
TGI (SNB-19 CNS): > 100 µM
